Measurements taken from US10722483B2, “Treatment of NAFLD and NASH” (CymaBay Therapeutics, Inc., priority 2014, dated 2020).
Where two headings read alike, the source gives them in different places.

Legend:
[1] = biological target: T1, PPARα (Homo sapiens, UniProt Q07869); test: Specificity of MBX-8025 compared with PPARα; assay type: biochemical
T1 sequence (Q07869 1-468): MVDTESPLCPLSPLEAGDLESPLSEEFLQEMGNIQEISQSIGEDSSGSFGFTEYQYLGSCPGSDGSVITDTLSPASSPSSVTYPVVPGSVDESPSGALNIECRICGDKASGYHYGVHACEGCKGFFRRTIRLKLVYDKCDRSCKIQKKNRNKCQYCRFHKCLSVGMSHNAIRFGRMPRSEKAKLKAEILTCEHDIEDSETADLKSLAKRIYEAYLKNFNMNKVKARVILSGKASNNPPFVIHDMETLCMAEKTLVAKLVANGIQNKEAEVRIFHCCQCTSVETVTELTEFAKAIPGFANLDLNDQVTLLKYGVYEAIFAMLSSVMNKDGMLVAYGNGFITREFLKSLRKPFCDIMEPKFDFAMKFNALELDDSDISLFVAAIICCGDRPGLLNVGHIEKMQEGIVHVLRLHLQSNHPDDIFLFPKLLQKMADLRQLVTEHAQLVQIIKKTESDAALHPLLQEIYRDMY

[2] = Example: subjects with NAFLD or NASH treated with MBX-8025 for 6 months; assay type: in vivo, human; conditions: 50 or 100 mg/day for 6 months
Protocol: Subjects are permitted their usual other medications (e.g. antidiabetic medications such as metformin or […]) but not glitazones, PPAR agonists, OCA, or similar medications. […] At each visit, after a 12-hour fast, blood is drawn and urine collected; and a standard metabolic panel, complete blood count, and standard urinalysis are performed. Blood is analyzed for total cholesterol, HDL-C, LDL-C, VLDL-C, TGs, apoB, and liver transaminases. The subjects also maintain health diaries, which are reviewed at each visit.

[3] = cited from earlier work
[4] = rodent models of NAFLD/NASH; cited from earlier work
[5] = cited from earlier work; remark: listed apart in the source
[6] = 80 mg/day or placebo, NASH patients; cited from earlier work
[7] = NAFLD/NASH; cited from earlier work
[8] = normal mice; cited from earlier work
[9] = genetically obese ob/ob mice; cited from earlier work
[10] = healthy subjects, cited from earlier work
[11] = dyslipidemic subjects with abdominal obesity; cited from earlier work
[12] = development discontinued; cited from earlier work
[13] = both women and men; cited from earlier work

CCO[C@H](COc1ccc(C(F)(F)F)cc1)CSc1ccc(OCC(=O)O)c(C)c1 [MBX-8025, (R)-2-(4-((2-ethoxy-3-(4-(trifluoromethyl)phenoxy)propyl)-thio)-2-methylphenoxy)acetic acid]
specificity for PPARδ compared with PPARα receptor [1]: > 600 fold
improvement in disease as manifested by MRI and liver biopsy [2]: dose-related improvement
reduction in LDL-C in the tertile with the highest starting LDL-C levels (187-205 mg/dL) ([3]; 100 mg/day): 35%
reduction of LDL-C over the total population treated ([3]; 100 mg/day): 22%
reduction (decrease) of LDL-S/VS ([3]; 8 weeks): 40-48%
reduction of apoB100 compared to placebo ([3]; MBX-8025 50 or 100 mg alone and in combination with atorvastatin 20 mg, 8 weeks, P<0.05): 20-38%
raise of HDL-C ([3]; MBX-8025 alone and in combination with atorvastatin, 8 weeks): 1-12%
insulin sensitivity (HOMA-IR, fasting plasma glucose, and insulin) ([3]; in vivo): increases insulin sensitivity

CSc1ccc(C(=O)/C=C/c2cc(C)c(OC(C)(C)C(=O)O)c(C)c2)cc1 [GFT505]
hepatic steatosis, inflammation, fibrosis and liver dysfunction markers [4]: decreased
liver dysfunction markers including ALT, ALP and GGT ([5]; clinical studies): decrease
lipid-modifying efficacy (reduction in TGs, non-HDL-C, total cholesterol, LDL-C, apoB; increases in HDL-C) ([5]; healthy subjects and patients with T2DM, abdominal obesity, dyslipidemia, pre-diabetes, insulin resistance): confirmed
interim safety analysis at 6 months [6]: no safety issue

CCCCCCCCCCC[C@@H](C[C@@H]1OC(=O)[C@H]1CCCCCC)OC(=O)[C@H](CC(C)C)NC=O [orlistat]
benefit compared to weight loss alone (diet and exercise) [7]: no significant benefit

CC(C)c1c(C(=O)Nc2ccccc2)c(-c2ccccc2)c(-c2ccc(F)cc2)n1CC[C@@H](O)C[C@@H](O)CC(=O)O [atorvastatin]
reduction (decrease) of LDL-S/VS ([3]; 8 weeks): 25%

Cc1cc(SCc2sc(-c3ccc(C(F)(F)F)cc3)nc2C)ccc1OCC(=O)O [GW510516]
diet-induced obesity and insulin resistance [8]: ameliorated
diabetes (glucose and insulin levels) [9]: markedly improved
reduction in hepatic fat ([10]; one of the Phase 1 studies): 20%
TGs, LDL-C, apoB, and insulin levels ([10]; two Phase 1 studies): reduce
decrease in fasting TGs [11]: 30%
decrease in fasting insulin [11]: 11%
reduction in LDL-C [11]: 23%
reduction in apoB [11]: 26%
reduction in fasting non-esterified fatty acids [11]: 40%
reduction in hepatic fat [11]: 20%
association with cancers in animal studies [12]: rapid development of cancers in several organs

CCc1ccc(CCOc2ccc(CC3SC(=O)NC3=O)cc2)nc1 (centres unmarked) [pioglitazone]
risk of weight gain, edema, congestive heart failure, and osteoporotic fractures [13]: significantly increased risk
